Values joined by “and” are separate entries in the source; they are usually repeats but may differ in a detail not shown here. Equal values may be shown once. “Also recorded” adds a separate entry of the source. Square brackets hold non-standard residues; d marks the D form. Peptide text beside a SMILES is read from it.
How the values were obtained:
primary human PBMCs = experiment: qPCR of IFNB1 and IL6 mRNA in ISD-stimulated PBMCs; type: cell-based; parameters: key to IFNB1 mRNA, qPCR, Fig. 2c / IL6 mRNA, qPCR, Fig. 2c / IFNB1 mRNA (Fig. S7f) / IL6 mRNA (Fig. S7f): relative mRNA level, target CT normalized to GAPDH CT; details: 10 μM
Method: (§1) The indicated cells were stimulated with either ISD (Sangon Biotech), HSV-1 (Provided by Dr. Zhengfan Jiang), HSV60mer (Sangon Biotech), SATE-cddA[70], 2’3’-cGAMP (Invivogen, Cat# tlrl-nacga23-1), ADU-S100 (MedChemExpress, Cat# HY-12885A) or Poly(I:C) (Invivogen, Cat# tlrl-pic) after XQ2 or XQ2B treatment. Total RNA was isolated from indicated cells that incubated with the drugs for indicated time or mice tissues by using NucleoZOL reagent (MACHEREY-NAGEL) according to the manufacturer’s instructions. The quantifications of mRNA levels were carried out by real-time PCR using a PerfectStart® Uni RT&qPCR Kit (TransGen Biotech) on the QuantStudio 5 qPCR machine (Applied Biosystems). Samples were carried out in triplicate and the target CT values were normalized to GAPDH CT values. Primers of qPCR used in this study can be found in Supplementary Table S2.

[1] = tested on: dsDNA-stimulated THP1 cells; experiment: qPCR of IFNB1/CXCL10/IL6 mRNA in THP1 cells stimulated by dsDNA (ISD, HSV60mer); type: cell-based, human; details: for IFNB1 mRNA, qPCR, Fig. 2b: 10 μM
Text: To screen direct cGAS inhibitors targeting protein-DNA interface from our developed focused library of macrocyclic peptides, we applied an RNA-based fluorescent biosensor for 2’,3’-cGAMP to detect cGAS activity in vitro (Supplementary Fig. 1a)[49]. The formation of 2’,3’-cGAMP from ATP and GTP was catalyzed by recombinant human cGAS enzyme (hcGAS-ΔN, residues 147–522, Supplementary Fig. 1b) in the presence of ISD (interferon stimulatory DNA, a 45-bp dsDNA), which was readily quantified by the RNA-based fluorescent biosensor and was further confirmed by ion exchange chromatography (Supplementary Fig. 1c). […] Subsequently, a total of 90 macrocyclic peptides were screened at a concentration of 20 μM (Fig. 1a and Supplementary Fig. 1e), and 4 hits (XQ2, XQ8, XQ19, and XQ46) were obtained for further testing at a cut-off of 40% inhibition (Supplementary Table 1). To evaluate the inhibitory effect of the hits against cGAS in cells, we employed real-time quantitative PCR (qPCR) to examine mRNA levels of IFNΒ1 in THP1 cells. The reported cGAS inhibitor RU.521 was used as the positive control, and the non-active peptide XQ28 in the screening assay was used as the negative control. […] The inhibition of cGAS by these hits was further confirmed in the reporter cell line THP1-Lucia ISG (Invivogen) that expresses secreted luciferase induced by an IRF3-inducible ISG54 promoter (Fig. 1c). The discrepancy between the inhibitory effect of the hits in protein and cellular assays may be attributed to their different cellular permeability.
as §1

Question: `CC(C)C[C@@H]1NC(=O)[C@H](CCCNC(=N)N)NC(=O)[C@H](C(C)C)NC(=O)[C@@H]2CCCN2C(=O)[C@@H](Cc2ccccc2)NC(=O)[C@H](CC(C)C)NC(=O)[C@H](CCCNC(=N)N)NC(=O)[C@H](C(C)C)NC(=O)[C@H](C)NC(=O)[C@@H](Cc2ccccc2)NC1=O` [XQ2, Cyclo (LfAVRLfPVR)] (cyclo(L[dF]AVRL[dF]PVR)) was tested. Which “ISD-induced IFNB1 and IL6 expression in PBMCs” value (primary human PBMCs) did it give?
Answer: Its value is “markedly suppressed the expression of IFNB1 and IL6; also recorded: significantly inhibit the activation of cGAS induced by ISD”.

Question: What about the “IFNB1 mRNA, qPCR, Fig. 2c” value (primary human PBMCs; PBMCs, ISD) of the same molecule?
Answer: The value was 362.804 and 380.938 and 448.513.

Question: What about the “IL6 mRNA, qPCR, Fig. 2c” value (primary human PBMCs; PBMCs, ISD) of the same molecule?
Answer: The value was 261.548 and 423.427 and 399.836.

Question: What about the “CXCL10 mRNA (Fig. S2a)” value ([1]; ISD, XQ2 0.31 μM) of the same molecule?
Answer: Its value is 608.071 and 547.477 and 553.882.

Question: What about the “IFNB1 mRNA (Fig. S2a)” value ([1]; ISD, XQ2 0.31 μM) of the same molecule?
Answer: Its value is 85.2902 and 89.4127 and 103.445.

Question: And the “IL6 mRNA (Fig. S2a)” value ([1]; ISD, XQ2 0.31 μM)?
Answer: The value was 53.8661 and 62.1977 and 48.2598.

Question: What about the “CXCL10 mRNA (Fig. S2a)” value ([1]; ISD, XQ2 0.63 μM) of the same molecule?
Answer: The value was 550.9 and 499.514 and 482.522.

Question: What about the “IFNB1 mRNA (Fig. S2a)” value ([1]; ISD, XQ2 0.63 μM) of the same molecule?
Answer: Its value is 75.3551 and 77.8155 and 85.6546.

Question: What about the “IL6 mRNA (Fig. S2a)” value ([1]; ISD, XQ2 0.63 μM) of the same molecule?
Answer: The value was 45.9203 and 56.9516 and 44.1827.

Question: What about the “CXCL10 mRNA (Fig. S2a)” value ([1]; ISD, XQ2 1.25 μM) of the same molecule?
Answer: Its value is 440.727 and 424.983 and 441.062.

Question: What about the “IFNB1 mRNA (Fig. S2a)” value ([1]; ISD, XQ2 1.25 μM) of the same molecule?
Answer: The value was 54.4915 and 50.1897 and 58.943.

Question: And the “IL6 mRNA (Fig. S2a)” value ([1]; ISD, XQ2 1.25 μM)?
Answer: Its value is 59.6412 and 54.8577 and 42.9996.

Question: What about the “CXCL10 mRNA (Fig. S2a)” value ([1]; ISD, XQ2 2.5 μM) of the same molecule?
Answer: Its value is 320.996 and 337.289 and 307.846.

Question: What about the “IFNB1 mRNA (Fig. S2a)” value ([1]; ISD, XQ2 2.5 μM) of the same molecule?
Answer: The value was 46.4673 and 40.8489 and 46.9306.

Question: What about the “IL6 mRNA (Fig. S2a)” value ([1]; ISD, XQ2 2.5 μM) of the same molecule?
Answer: Its value is 51.498 and 49.1657 and 30.2376.

Question: And the “CXCL10 mRNA (Fig. S2a)” value ([1]; ISD, XQ2 5 μM)?
Answer: The value was 341.101 and 357.811 and 355.382.

Question: And the “IFNB1 mRNA (Fig. S2a)” value ([1]; ISD, XQ2 5 μM)?
Answer: The value was 26.7077 and 29.7394 and 30.8514.

Question: What about the “IL6 mRNA (Fig. S2a)” value ([1]; ISD, XQ2 5 μM) of the same molecule?
Answer: Its value is 24.0755 and 29.7141 and 20.0828.

Question: What about the “CXCL10 mRNA (Fig. S2a)” value ([1]; ISD, XQ2 10 μM) of the same molecule?
Answer: Its value is 329.162 and 346.227 and 299.128.

Question: What about the “IFNB1 mRNA (Fig. S2a)” value ([1]; ISD, XQ2 10 μM) of the same molecule?
Answer: The value was 10.6974 and 11.3948 and 12.0973.

Question: What about the “IL6 mRNA (Fig. S2a)” value ([1]; ISD, XQ2 10 μM) of the same molecule?
Answer: The value was 18.3875 and 16.237 and 20.2076.

Question: What about the “CXCL10 mRNA (Fig. S2a)” value ([1]; Mock, XQ2 0.31 μM) of the same molecule?
Answer: The value was 0.6255 and 0.7855 and 0.8542.

Question: What about the “IFNB1 mRNA (Fig. S2a)” value ([1]; Mock, XQ2 0.31 μM) of the same molecule?
Answer: Its value is 0.7527 and 0.6452 and 0.8722.

Question: And the “IL6 mRNA (Fig. S2a)” value ([1]; Mock, XQ2 0.31 μM)?
Answer: The value was 0.9875 and 1.125 and 1.458.

Question: And the “CXCL10 mRNA (Fig. S2a)” value ([1]; Mock, XQ2 0.63 μM)?
Answer: The value was 0.4588 and 0.432 and 0.4044.

Question: What about the “IFNB1 mRNA (Fig. S2a)” value ([1]; Mock, XQ2 0.63 μM) of the same molecule?
Answer: Its value is 0.713 and 0.5919 and 0.8053.

Question: What about the “IL6 mRNA (Fig. S2a)” value ([1]; Mock, XQ2 0.63 μM) of the same molecule?
Answer: Its value is 1.48 and 1.078 and 1.222.

Question: What about the “CXCL10 mRNA (Fig. S2a)” value ([1]; Mock, XQ2 1.25 μM) of the same molecule?
Answer: Its value is 1.308 and 1.359 and 1.615.

Question: And the “IFNB1 mRNA (Fig. S2a)” value ([1]; Mock, XQ2 1.25 μM)?
Answer: Its value is 0.9026 and 1.107 and 1.382.

Question: And the “CXCL10 mRNA (Fig. S2a)” value ([1]; Mock, XQ2 2.5 μM)?
Answer: The value was 3.137 and 2.991 and 2.833.

Question: What about the “IFNB1 mRNA (Fig. S2a)” value ([1]; Mock, XQ2 2.5 μM) of the same molecule?
Answer: Its value is 1.426 and 1.751 and 1.799.

Question: And the “IL6 mRNA (Fig. S2a)” value ([1]; Mock, XQ2 2.5 μM)?
Answer: Its value is 2.387 and 2.459 and 3.439.

Question: What about the “CXCL10 mRNA (Fig. S2a)” value ([1]; Mock, XQ2 5 μM) of the same molecule?
Answer: Its value is 1.923 and 2.134 and 2.246.

Question: And the “IFNB1 mRNA (Fig. S2a)” value ([1]; Mock, XQ2 5 μM)?
Answer: Its value is 1.17 and 1.093 and 1.0788.

Question: What about the “CXCL10 mRNA (Fig. S2a)” value ([1]; Mock, XQ2 10 μM) of the same molecule?
Answer: The value was 4.593 and 4.941 and 4.3739.

Question: What about the “IFNB1 mRNA (Fig. S2a)” value ([1]; Mock, XQ2 10 μM) of the same molecule?
Answer: Its value is 1.523 and 2.285 and 2.284.

Question: What about the “IL6 mRNA (Fig. S2a)” value ([1]; Mock, XQ2 10 μM) of the same molecule?
Answer: The value was 4.656 and 4.111 and 3.925.

Question: And the “dsDNA/ISD-induced IFNB1, CXCL10, IL6 expression” value ([1]; THP1)?
Answer: Its value is “inhibited the expression level of IFNΒ1 and CXCL10, as well as IL6; also recorded: best potency in the cellular assays”.

Question: What about the “IFNB1 mRNA, qPCR, Fig. 2b” value ([1]; THP1, ISD) of the same molecule?
Answer: The value was 72.2364 and 85.3888 and 75.3743.

Question: What about the “IFNB1 mRNA, qPCR, Fig. 2b” value ([1]; THP1, Mock (no stimulus)) of the same molecule?
Answer: The value was 1.523 and 2.285 and 2.284.

Question: What about the “IFNB1 mRNA, qPCR, Fig. 1b” value ([1]; THP1, dsDNA 6 h, hits 10 μM, replicate values) of the same molecule?
Answer: The value was 24.5085 and 22.546 and 27.0371.

Question: And the “cellular efficacy against cGAS” value ([1]; as stated in the rebuttal letter, cellular assays)?
Answer: The value was < 10 µM.
